The text below walks through data of patent US4616025A, “Thiazolidine derivatives, process for the preparation and pharmaceutical compositions thereof” (Richter Gedeon Vegyeszeti Gyar RT, priority 1983, dated 1986).

The subject of data set [1] is aspirin-induced gastric ulcers. In words: Aspirin-induced stomach ulcer. The class given is in vivo, rat (female H-Wistar). Conditions: Aspirin (control) 100 mg/kg p.o., n=20. The procedure: It is known that the non-steroidal antiinflammatory agents induce gastointestinal ulceration to certain extent (Drugs and Peptic Ulcer, Ed. Pfeiffer, CRC Press, New York 1982). To test anti-ulcer compounds the so-called Aspirin-induced ulcer model is widely used. Female H-Wistar rats weighing 120-150 g each were fasted for 24 hours. Water was allowed ad libitum. The stomach ulcer was induced by oral administration of 100 mg/kg Aspirin (in Tween 80 suspension). The test drug was given simultaneously with the administration of Aspirin, orally. The animals were killed by an overdose of ether, 4 hours after treatment. The stomach was excised and cut along the large curvature. The contents were slightly washed and the haemorrhagic lesions in the glandular surface were counted. When evaluating the test results, the number of ulcers per stomach or the ulcer-free animals were determined.

Data set [2] deals with indomethacin-induced non-fatal intestinal ulceration. The experiment in a line: Indomethacin-induced (7.5 mg/kg p.o.) non-fatal intestinal ulceration, post-treatment, inflation technique. The class given is in vivo, rat (H-Wistar). The protocol:
(§1) To evaluate the development of intestinal ulcers the so-called inflation technique by Ezer and Szporny (J. Pharm. Pharmacol. 27, 866 (1975)) was employed. By this method the progress of ulceration can be monitored quantitatively. The tensile strength of the intestinal wall expressed in mmHg weakens gradually parallel with the progress of ulceration.
(b) Indomethacin-induced non-fatal ulceration
Non-fasted H-Wistar rats weighing 120 to 150 g each were administered 7.5 mg/kg indomethacin orally, to induce non-fatal intestinal ulceration. 4, 24 and 48 hours, respectively, after the indomethacin treatment the animals were treated with the test material orally. The animals were killed 24 hours after the last treatment and 72 hours after the ulcer-induction performed with indomethacin, respectively. Ulceration was evaluated by the inflation technique.

The test system of data set [3] is formation of ulcers. To be noted: cited from earlier work.
For data set [4], the system named is indomethacin-induced intestinal ulceration. The experiment in a line: Indomethacin-induced fatal intestinal ulceration (15 mg/kg p.o.), inflation technique. The data set is classed as in vivo, rat (female H-Wistar). The protocol:
Indomethacin-induced intestinal ulceration
Of the non-steroidal antiinflammatory agents indomethacin has not only a gastric-ulcer inducing side-effect but may also cause serious intestinal ulceration. Depending on the dose, the intestinal ulceration may be fatal, peritonitis due to intestinal perforations kills the animals.
(a) Indomethacin-induced fatal intestinal ulceration
Non-fasted, female H-Winstar rats, weighing 120-150 g each were treated orally with a 15 mg/kg dose of indomethacin (in Tween 80 suspension). […] Under these conditions it requires about 48 to 72 hours to detect intenstinal ulceration.
as §1

For data set [5], the system named is intestinal ulceration induced by indomethacin. Conditions: literature; cited from earlier work.
Where [6] appears, read: indomethacin 15 + 25 mg/kg p.o.
Setting [7] is: indomethacin 15 + 50 mg/kg p.o.
Where [8] appears, read: indomethacin 15 mg/kg p.o. alone, n=16.

In data set [1], `CC(=O)Oc1ccccc1C(=O)O` [Aspirin, reference compound] showed a Number of ulcers/stomach of 15.7 ± 3.0 and a Ulcer-free animals of 0%.
As to `CNC(=C[N+](=O)[O-])NCCSCc1ccc(CN(C)C)o1` [ranitidine], the “Non-fatal intestinal ulceration post-treatment, in words” value in data set [2] (post-treatment 4, 24 and 48 hours after indomethacin 7.5 mg/kg p.o.) is on record as “ineffective”.
For the molecule `CN1CCN(CC(=O)N2c3ccccc3C(=O)Nc3cccnc32)CC1` [pirenzepine, 5,11-dihydro-11-[(4-methyl-1-piperazinyl)-acetyl]-6H-pyrido[2,3-b][1,4] benzodiazepine-6-one], in data set [3] (compared to atropine), the “Inhibition of the formation of ulcers, in words” value is reported as “inhibits the formation of ulcers to the same extent as atropine”. In data set [3] (in vivo), the “Other anticholinergic effects (e.g. inhibition of peristalsis, accommodation disturbances of eye, inhibition of salivation)” value is on record as “devoid of other anticholenergic effects”.
Take `O=C(O)c1ccccc1O` [Na--salicylate, reference compound]: in data set [4] (Rattus norvegicus, po), the ED100 amounted to 50 mg/kg. In addition, in data set [4] (setting [6]), the “Intestinal wall resistency in % of normal” value is reported as 57 % of normal and the “T.s. of intestinal wall 72 hours after treatment” value turned out to be 132 ± 17 mm Hg. For the same molecule, in data set [4] (setting [7]), the “Intestinal wall resistency in % of normal” value is recorded as 100 % of normal and the “T.s. of intestinal wall 72 hours after treatment” value is given as 231 ± 5 mm Hg.
In the case of `CC(C)[N+](C)(CCOC(=O)C1c2ccccc2Oc2ccccc21)C(C)C` [Propanthelin], the “Indomethacin-induced intestinal ulceration, in words” value in data set [5] is “cannot prevent indomethacin-induced intestinal ulceration”.
Regarding `C[N+]1(C)[C@@H]2CC[C@H]1CC(OC(=O)C1c3ccccc3Oc3ccccc31)C2.[Br-]` (stereo partly drawn) [Gastrixon], the “Indomethacin-induced intestinal ulceration, in words” value in data set [5] is “cannot prevent indomethacin-induced intestinal ulceration”.
For `COc1ccc2c(c1)c(CC(=O)O)c(C)n2C(=O)c1ccc(Cl)cc1` [Indomethacin, reference compound], in data set [4] (setting [8]), the “Intestinal wall resistency in % of normal” value is 20 % of normal and the “T.s. of intestinal wall 72 hours after treatment” value amounted to 46 ± 12 mm Hg. In addition, the “T.s. of intestinal wall 72 hours after indomethacin treatment” value in data set [2] (indomethacin 7.5 mg/kg p.o. alone, n=32, group B) was 185 ± 11 mm Hg.
